“And” between values parts separate entries of the source, which are not always exact repeats. Identical values can stand only once.
Experiments:
HEK293T cells [1] = experiment: Cytotoxicity: apoptosis induction (caspase-3/7 DEVD fluorogenic DNA dye); settings: for Apoptosis induction [AI]: single replicates
Experimental: (§2) Cells were incubated with the test compounds at the indicated concentrations solubilized with 0.1% DMSO for 24 h. Growth-rate was determined based on the change in confluence over 24 h normalized to the change in confluence of cells treated with the 0.1% DMSO control (n = 10). Metabolic activity was determined with a water-soluble tetrazolium-8 (WST-8) assay (n = 8) after 24 h treatment. Apoptotic cells were detected with a fluorogenic DNA dye coupled to the caspase-3/7 recognition sequence (DEVD) after 24 h treatment and the apoptotic cell count was normalized to 0.1% DMSO treated cells (n = 6).
(§3) HEK293T cells (German Collection of Microorganisms and Cell Culture GmbH, DSMZ; #ACC305) were cultured in DMEM high glucose, supplemented with 10% fetal calf serum (FCS), sodium pyruvate (1 mM), penicillin (100 µ/mL) and streptomycin (100 µg/mL) at 37 °C and 5% (v/v) CO2, and seeded in pre-coated (10 µg/mL collagen G solution (Merck KgaA; #L7213) for 30 min at 37 °C) 96-well plates (2 × 10^5 cells per well). After 24 h, the cells were treated with the respective NR3 CG compound candidate at the recommended concentration, bexarotene (100 µM) or doxorubicin (30 µM) as positive controls in DMEM high glucose supplemented with 0.1% FCS, penicillin (100 µ/mL), streptomycin (100 µg/mL) and 0.1% DMSO, or 0.1% DMSO alone as an untreated control. Each sample was prepared in at least four biologically independent replicates. […] Thereafter, the medium was aspirated and the cells were incubated for 3 h with 90 µL DMEM high glucose supplemented with 0.2% FCS, penicillin (100 µ/mL) and streptomycin (100 µg/mL) and additionally containing 10 µL Cell Counting Kit 8 solution (CCK-8; MedChemExpress, Monmouth Junction, New York, USA; #HY-K0301), and absorbance was measured at 1 h, 2 h and 3 h of incubation at 450 nm on a Tecan Spark Cyto to assess metabolic activity of the cells. Before drug administration, after the first medium exchange, 24 h after drug administration, and after fluorescence imaging cell confluence was assessed using the Tecan Spark Cyto, to account for changes in cell confluence due to drug administration and cell handling. Compound effects on cell confluence, apoptosis, metabolic activity and necrosis were normalized to the vehicle control of each biological replicate individually.

CDK2 = target: T1, CDK2 (Homo sapiens, UniProt P24941); experiment: Liability panel screening by DSF: CDK2; format: binding; settings: DSF, 20 µM, n=2; read-out: Mean ΔTM CDK2
T1 construct: made in house
In short: (§1)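 ∆Tm in K was taken from Boltzmann-fitted unfolding inflection points, run in duplicate with a temperature ramp of 3 °C per minute up to 85 °C. Each recombinant protein (2 µM) was in HEPES 10 mM pH 7.5 and NaCl 500 mM, with SYPRO Orange dye at 1:1000.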

HEK293T cells [2] = experiment: Cytotoxicity: metabolic activity (WST-8 / CCK-8 assay); settings: single replicates
ABL1 = target: T2, ABL1 (Homo sapiens, UniProt P00519); experiment: Liability panel screening by DSF: ABL1; format: binding; settings: DSF, 20 µM, n=2; read-out: Mean ΔTM ABL1
T2 construct: made in house
T2 sequence (P00519 whole entry, species assumed): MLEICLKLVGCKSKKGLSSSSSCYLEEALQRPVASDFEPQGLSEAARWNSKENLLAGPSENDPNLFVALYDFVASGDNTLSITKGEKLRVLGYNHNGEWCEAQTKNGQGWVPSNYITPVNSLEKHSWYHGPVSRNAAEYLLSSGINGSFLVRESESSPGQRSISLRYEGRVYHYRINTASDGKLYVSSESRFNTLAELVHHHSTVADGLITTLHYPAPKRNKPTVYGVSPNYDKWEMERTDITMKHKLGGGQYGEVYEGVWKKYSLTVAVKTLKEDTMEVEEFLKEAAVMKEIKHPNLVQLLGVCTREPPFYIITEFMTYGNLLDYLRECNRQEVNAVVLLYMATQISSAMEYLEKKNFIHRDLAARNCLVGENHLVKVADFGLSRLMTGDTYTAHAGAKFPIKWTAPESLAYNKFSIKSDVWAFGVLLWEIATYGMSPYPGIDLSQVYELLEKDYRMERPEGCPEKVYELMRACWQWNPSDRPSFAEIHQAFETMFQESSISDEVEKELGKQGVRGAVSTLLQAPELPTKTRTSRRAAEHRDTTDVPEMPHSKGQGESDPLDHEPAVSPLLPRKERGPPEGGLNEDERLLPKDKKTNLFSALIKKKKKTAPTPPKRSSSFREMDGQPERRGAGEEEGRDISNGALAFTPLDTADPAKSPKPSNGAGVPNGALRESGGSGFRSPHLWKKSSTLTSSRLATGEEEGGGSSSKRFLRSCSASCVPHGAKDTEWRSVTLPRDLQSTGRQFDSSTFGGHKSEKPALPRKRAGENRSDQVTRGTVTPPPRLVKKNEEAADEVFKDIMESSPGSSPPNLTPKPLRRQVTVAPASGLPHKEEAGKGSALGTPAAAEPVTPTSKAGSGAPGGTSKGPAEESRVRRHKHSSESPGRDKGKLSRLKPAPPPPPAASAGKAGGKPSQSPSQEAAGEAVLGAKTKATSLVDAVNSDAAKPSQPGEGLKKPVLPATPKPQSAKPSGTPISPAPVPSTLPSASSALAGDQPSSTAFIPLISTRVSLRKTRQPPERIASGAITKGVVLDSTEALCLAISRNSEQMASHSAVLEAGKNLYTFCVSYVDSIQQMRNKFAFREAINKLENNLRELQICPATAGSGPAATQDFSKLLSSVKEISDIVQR
In short: as §1

[3] = system: NF-κB activity in HEK293 NF-κB reporter cells; experiment: NF-kB activity assay (GFP reporter, ionomycin/PMA); format: cell-based; settings: n=3
In short: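 HEK293 NF-κB GFP reporter cells given compound in 0.1% DMSO for 4 h, then stimulated with ionomycin 100 ng/mL plus PMA 10 ng/mL. Imaged every 90 min over 24 h; GFP-positive cell count normalized to confluence, three independent biological replicates.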

TRIM24 = target: T3, TRIM24 (Homo sapiens, UniProt O15164); experiment: Liability panel screening by DSF: TRIM24; format: binding; settings: DSF, 20 µM, n=2; read-out: Mean ΔTM TRIM24
T3 construct: This panel comprised ten highly ligandable kinases and bromodomains; made in house
T3 sequence (O15164 899-1004 limits assumed): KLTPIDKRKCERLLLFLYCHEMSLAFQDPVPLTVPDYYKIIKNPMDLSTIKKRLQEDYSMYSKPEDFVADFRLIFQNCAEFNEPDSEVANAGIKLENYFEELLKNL
In short: as §1

HEK293T cells [4] = experiment: Cytotoxicity: necrosis induction (red fluorescent dye for permeable plasma membranes); format: cell-based; settings: 0.3 µM, 24 h, necrotic cell count normalized to 0.1% DMSO, single replicates;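 also: compounds applied in DMEM high glucose with 0.1% FCS and 0.1% DMSO, necrotic HEK293T cells counted by red staining of cells whose plasma membranes had become permeable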
HEK293T cells [5] = experiment: Cytotoxicity: growth-rate (change in confluence over 24 h); settings: normalized to 0.1% DMSO control, single replicates (n=1...)
Experimental: as §2, §3

[6] = system: ATF6 activity in Hela ATF6 reporter cells; experiment: Endoplasmic reticulum stress assay (ATF6 Renilla luciferase reporter, tunicamycin); format: cell-based; settings: Homo sapiens, HeLa, 0.3 µM, single replicates n=1 to n=5; read-out: ER stress [rel. ATF6 activity]
In short: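 HeLa ATF6 Renilla reporter cells were pretreated 4 h with compounds in 0.1% DMSO, then stimulated with tunicamycin (100 ng/mL) for 18 h. Renilla luminescence (DualGlo) was normalized to 0.1% DMSO control; five independent experiments.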

MAPK1 = target: T4, MAPK1 (Homo sapiens, UniProt P28482); experiment: Liability panel screening by DSF: MAPK1; format: binding; settings: DSF, 20 µM, n=2; read-out: Mean ΔTM MAPK1
T4 construct: made in house
T4 sequence (P28482 whole entry, species assumed): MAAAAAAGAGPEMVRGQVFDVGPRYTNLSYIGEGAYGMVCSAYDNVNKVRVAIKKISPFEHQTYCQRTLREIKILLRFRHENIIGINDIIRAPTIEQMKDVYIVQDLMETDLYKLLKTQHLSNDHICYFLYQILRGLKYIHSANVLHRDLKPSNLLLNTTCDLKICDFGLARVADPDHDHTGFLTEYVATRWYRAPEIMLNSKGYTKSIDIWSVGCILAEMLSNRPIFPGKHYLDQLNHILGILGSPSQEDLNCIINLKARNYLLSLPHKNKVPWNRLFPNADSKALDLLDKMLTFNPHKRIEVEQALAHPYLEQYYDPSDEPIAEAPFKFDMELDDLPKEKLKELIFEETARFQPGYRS
In short: as §1

AURKA = target: T5, AURKA (Homo sapiens, UniProt O14965); experiment: Liability panel screening by DSF: AURKA; format: binding; settings: DSF, 20 µM, n=2; read-out: Mean ΔTM AURKA
T5 construct: made in house
T5 sequence (O14965 1-403): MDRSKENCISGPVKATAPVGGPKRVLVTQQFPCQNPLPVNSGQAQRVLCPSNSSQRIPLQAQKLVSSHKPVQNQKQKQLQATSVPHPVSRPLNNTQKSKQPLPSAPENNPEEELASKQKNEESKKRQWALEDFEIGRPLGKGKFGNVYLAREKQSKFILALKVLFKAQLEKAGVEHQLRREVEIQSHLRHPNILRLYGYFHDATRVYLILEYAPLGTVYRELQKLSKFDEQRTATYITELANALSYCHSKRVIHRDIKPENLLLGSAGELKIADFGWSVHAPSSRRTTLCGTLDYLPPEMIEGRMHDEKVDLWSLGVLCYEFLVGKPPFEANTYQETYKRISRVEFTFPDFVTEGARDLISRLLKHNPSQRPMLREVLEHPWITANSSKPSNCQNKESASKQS
In short: as §1

BRD4 = target: T6, BRD4 (Homo sapiens, UniProt O60885); experiment: Liability panel screening by DSF: BRD4; format: binding; settings: DSF, 20 µM, n=2; read-out: Mean ΔTM BRD4
T6 construct: This panel comprised ten highly ligandable kinases and bromodomains; made in house
In short: as §1

FGFR3 = target: T7, FGFR3 (Homo sapiens, UniProt P22607); experiment: Liability panel screening by DSF: FGFR3; format: binding; settings: DSF, 20 µM, n=2; read-out: Mean ΔTM FGFR3
T7 construct: made in house
T7 sequence (P22607 23-806, species assumed): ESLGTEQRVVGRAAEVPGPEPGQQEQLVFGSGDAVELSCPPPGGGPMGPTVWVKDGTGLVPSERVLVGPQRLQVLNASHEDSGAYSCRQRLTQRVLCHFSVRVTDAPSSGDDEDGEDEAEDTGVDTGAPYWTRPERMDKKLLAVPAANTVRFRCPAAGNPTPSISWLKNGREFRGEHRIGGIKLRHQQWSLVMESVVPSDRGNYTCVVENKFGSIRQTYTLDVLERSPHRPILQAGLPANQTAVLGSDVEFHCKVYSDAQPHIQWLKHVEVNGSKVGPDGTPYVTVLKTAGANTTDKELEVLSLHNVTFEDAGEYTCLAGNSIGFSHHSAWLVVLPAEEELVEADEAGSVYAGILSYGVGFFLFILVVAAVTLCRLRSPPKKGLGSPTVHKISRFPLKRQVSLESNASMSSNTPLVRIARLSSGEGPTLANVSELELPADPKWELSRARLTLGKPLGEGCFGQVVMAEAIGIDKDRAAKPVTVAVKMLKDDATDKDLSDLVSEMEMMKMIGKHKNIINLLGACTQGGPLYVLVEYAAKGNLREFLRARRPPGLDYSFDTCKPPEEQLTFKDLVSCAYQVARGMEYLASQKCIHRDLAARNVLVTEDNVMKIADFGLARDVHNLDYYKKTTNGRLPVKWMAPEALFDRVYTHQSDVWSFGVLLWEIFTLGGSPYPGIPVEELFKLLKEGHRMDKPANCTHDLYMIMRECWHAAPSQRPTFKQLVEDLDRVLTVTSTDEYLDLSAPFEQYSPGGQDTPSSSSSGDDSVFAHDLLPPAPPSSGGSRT
In short: as §1

NR3B3 (ERRγ) = settings: (lit.); ref Supplementary Table 1; read-out: Potency [nM] IC50, NR3B3 (ERRγ); cited from earlier work
BRPF1 = target: T8, BRPF1 (Homo sapiens, UniProt P55201); experiment: Liability panel screening by DSF: BRPF1; format: binding; settings: DSF, 20 µM, n=2; read-out: Mean ΔTM BRPF1
T8 construct: This panel comprised ten highly ligandable kinases and bromodomains; made in house
T8 sequence (P55201 628-732 limits assumed): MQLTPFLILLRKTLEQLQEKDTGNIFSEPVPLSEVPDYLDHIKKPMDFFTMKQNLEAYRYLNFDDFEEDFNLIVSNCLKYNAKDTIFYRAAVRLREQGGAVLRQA
In short: as §1

NR3A2 (ERβ) = settings: (lit.); ref Supplementary Table 1; read-out: Potency [nM] EC50, NR3A2 (ERβ); cited from earlier work
Gal4-VP16 = format: cell-based; settings: 1 µM
[7] = cited from earlier work
GSK3B = target: T9, GSK3B (Homo sapiens, UniProt P49841); experiment: Liability panel screening by DSF: GSK3B; format: binding; settings: DSF, 20 µM, n=2; read-out: Mean ΔTM GSK3B
T9 construct: made in house
T9 sequence (P49841 whole entry, species assumed): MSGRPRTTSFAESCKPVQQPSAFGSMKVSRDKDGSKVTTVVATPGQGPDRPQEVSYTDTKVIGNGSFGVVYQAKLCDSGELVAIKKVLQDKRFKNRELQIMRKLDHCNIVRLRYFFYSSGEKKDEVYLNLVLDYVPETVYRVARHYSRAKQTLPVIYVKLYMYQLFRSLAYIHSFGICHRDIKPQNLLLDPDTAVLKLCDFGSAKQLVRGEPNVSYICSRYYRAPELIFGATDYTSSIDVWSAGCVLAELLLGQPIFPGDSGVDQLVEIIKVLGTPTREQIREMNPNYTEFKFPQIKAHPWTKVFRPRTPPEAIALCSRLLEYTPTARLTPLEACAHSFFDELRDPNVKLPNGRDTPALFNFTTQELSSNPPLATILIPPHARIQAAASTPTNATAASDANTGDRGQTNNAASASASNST

NR3A1 (ERα) = settings: (lit.); ref Supplementary Table 1; read-out: Potency [nM] EC50, NR3A1 (ERα); cited from earlier work
HEK293T cells [8] = experiment: Evaluation of cytotoxicity (overall: growth-rate, metabolic activity, apoptosis, necrosis); format: cell-based; settings: HEK293T, 24 h; budesonide (3 µM), others at tested concentration
Experimental: The selection of 40 CG candidates was acquired from commercial vendors (purity ≥95%) and applied to initial toxicity screening. Cytotoxicity was determined in HEK293T cells considering growth-rate, metabolic activity as well as apoptosis and/or necrosis induction to evaluate suitability of the compounds for CG application in cellular settings (Fig. 3a–d, Supplementary Fig. 1, Supplementary Data 1). The candidates were generally well tolerated at concentrations >>EC50/IC50 that we recommend for CG application with only four compounds showing mild toxic effects. […] In terms of cytotoxicity, all candidates thus appeared suitable for inclusion in an NR3 CG set.

CSNK1D = target: T10, CSNK1D (Homo sapiens, UniProt P48730); experiment: Liability panel screening by DSF: CSNK1D; format: binding; settings: DSF, 20 µM, n=2; read-out: Mean ΔTM CSNK1D
T10 construct: made in house
T10 sequence (P48730 whole entry, species assumed): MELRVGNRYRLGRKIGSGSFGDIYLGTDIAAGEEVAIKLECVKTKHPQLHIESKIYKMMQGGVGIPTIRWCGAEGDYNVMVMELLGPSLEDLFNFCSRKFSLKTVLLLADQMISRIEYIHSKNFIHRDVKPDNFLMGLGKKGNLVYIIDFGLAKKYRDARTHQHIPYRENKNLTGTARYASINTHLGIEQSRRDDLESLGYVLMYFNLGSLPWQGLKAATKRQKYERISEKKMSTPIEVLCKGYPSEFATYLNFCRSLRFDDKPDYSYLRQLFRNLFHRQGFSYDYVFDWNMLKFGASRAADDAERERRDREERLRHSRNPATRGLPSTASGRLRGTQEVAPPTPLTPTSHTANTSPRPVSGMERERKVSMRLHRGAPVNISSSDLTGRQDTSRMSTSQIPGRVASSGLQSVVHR
In short: as §1

With CC(C)(c1ccc(O)cc1)c1ccc(O)cc1 [Bisphenol A] the “Apoptosis induction [AI]” value (HEK293T cells [1]; 0.3 µM, HEK293T, 24 h, apoptotic cell count normalized to 0.1% DMSO) was 0.73 and 0.80 and 0.66 and 1.02 and 0.52 and 0.91, the ΔTm at 20 µM (CDK2) was 1.16 °C and the “Metabolic activity [MA]” value (HEK293T cells [2]; 0.3 µM, HEK293T, 24 h, WST-8, normalized to 0.1% DMSO) was 1.05 (2×) and 0.84 and 0.94 and 1.07 and 0.99 (2×) and 1.13. For the same compound, the ΔTm at 20 µM (ABL1) was 0.26 °C, the “Mean NFκB response” value ([3]; 0.3 µM, 1,5 h) was 2380.54 GFP+-cells/confluence ∙ 1000 and the “Mean NFκB response” value ([3]; 0.3 µM, 4,5 h) was 2758.19 GFP+-cells/confluence ∙ 1000. The “Mean NFκB response” value ([3]; 0.3 µM, 7,5 h) was 7233.84 GFP+-cells/confluence ∙ 1000, the “Mean NFκB response” value ([3]; 0.3 µM, 10,5 h) was 19121.46 GFP+-cells/confluence ∙ 1000 and the “Mean NFκB response” value ([3]; 0.3 µM, 13,5 h) was 28203.30 GFP+-cells/confluence ∙ 1000. For the same compound, the “Mean NFκB response” value ([3]; 0.3 µM, 16,6 h) was 34624.31 GFP+-cells/confluence ∙ 1000, the “Mean NFκB response” value ([3]; 0.3 µM, 19,5 h) was 39396.74 GFP+-cells/confluence ∙ 1000 and the “Mean NFκB response” value ([3]; 0.3 µM, 22,5 h) was 42069.32 GFP+-cells/confluence ∙ 1000. For the same compound, the “Mean NFκB response” value ([3]; 0.3 µM, 3 h) was 2422.37 GFP+-cells/confluence ∙ 1000, the “Mean NFκB response” value ([3]; 0.3 µM, 6 h) was 3882.85 GFP+-cells/confluence ∙ 1000 and the “Mean NFκB response” value ([3]; 0.3 µM, 9 h) was 13703.44 GFP+-cells/confluence ∙ 1000. The “Mean NFκB response” value ([3]; 0.3 µM, 12 h) was 24104.26 GFP+-cells/confluence ∙ 1000, the “Mean NFκB response” value ([3]; 0.3 µM, 15 h) was 31750.86 GFP+-cells/confluence ∙ 1000 and the “Mean NFκB response” value ([3]; 0.3 µM, 18 h) was 37025.53 GFP+-cells/confluence ∙ 1000. The “Mean NFκB response” value ([3]; 0.3 µM, 21 h) was 40865.92 GFP+-cells/confluence ∙ 1000, the “Mean NFκB response” value ([3]; 0.3 µM, 24 h) was 43618.62 GFP+-cells/confluence ∙ 1000 and the ΔTm at 20 µM (TRIM24) was -1.35 °C. The “Necrosis induction [NI]” value (HEK293T cells [4]) was 0.87 and 0.82 and 0.90 and 1.20, the “Growth rate [GR]” value (HEK293T cells [5]; 0.3 µM) was 0.54 and 1.52 and 0.90 (2×) and 1.13 and 0.87 and 0.95 and 0.88 and 2.38 and 0.44 and the activity at 0.3 µM [6] was 96%. It also gave a ΔTm at 20 µM (MAPK1) of 0.26 °C, a ΔTm at 20 µM (AURKA) of 0.19 °C and a ΔTm at 20 µM (BRD4) of -2.63 °C. For the same compound, the ΔTm at 20 µM (FGFR3) was 0.44 °C, the IC50 (NR3B3 (ERRγ)) was 13 ± 2 nM and the ΔTm at 20 µM (BRPF1) was -2.21 °C.
In the case of C#C[C@]1(O)CC[C@H]2[C@@H]3CCc4cc(O)ccc4[C@H]3CC[C@@]21C [Ethinylestradiol], the “Apoptosis induction [AI]” value (HEK293T cells [1]; 1 µM, DMSO 0.1% = 1.00) is given as 1.56 and 1.81, the apoptosis induction (HEK293T cells [1]; HEK293T, 24 h, budesonide (3 µM), others at tested concentration) is given as “slight apoptosis induction” and the EC50 (NR3A2 (ERβ)) is given as 18 ± 2 nM. The ΔTm at 20 µM (CDK2) was -0.25 °C, the “VP16 control [fold reporter gene activity] (n=3), n=1” value (Gal4-VP16; replicate n=1) was 1.03 fold and the “VP16 control [fold reporter gene activity] (n=3), n=2” value (Gal4-VP16; replicate n=2) was 0.89 fold. The “VP16 control [fold reporter gene activity] (n=3), n=3” value (Gal4-VP16; replicate n=3) was 0.92 fold, the “Metabolic activity [MA]” value (HEK293T cells [2]; 1 µM, DMSO 0.1% = 1.00) was 1.06 (2×) and 0.82 and 1.07 and 1.00 and 0.95 and the ΔTm at 20 µM (ABL1) was -0.29 °C. The “NR off-target at recom. conc.” value ([7]; known NR off-target at the recommended concentration, ref Supplementary Table 1 (superscript references)) was “NR1I3”, the “Other off-target at recom. conc.” value ([7]; known off-target outside the NR family at the recommended concentration, ref Supplementary Table 1 (superscript references)) was “AOX1 and CYP2B6 and SULT1A1 and OCT2” and the “Reason for exclusion: number of annotated off-targets” value ([7]; other targets with annotated bioactivities at ≤10 µM in previously published dataset) was over 5 off-targets. For the same compound, the ΔTm at 20 µM (TRIM24) was -1.12 °C, the “Growth rate [GR]” value (HEK293T cells [5]; 1 µM) was 1.36 and 0.84 and 1.03 and 0.88 and 0.94 and 0.78 and the ΔTm at 20 µM (MAPK1) was 0.35 °C. For the same compound, the ΔTm at 20 µM (GSK3B) was 0.23 °C, the ΔTm at 20 µM (AURKA) was 0.11 °C and the EC50 (NR3A1 (ERα)) was 8 ± 1 nM. For the same compound, the ΔTm at 20 µM (BRD4) was 0.13 °C, the “effects on growth-rate, metabolic activity and necrosis” value (HEK293T cells [8]) was “without relevant effects” and the ΔTm at 20 µM (FGFR3) was -0.28 °C. The ΔTm at 20 µM (CSNK1D) was 0.07 °C and the ΔTm at 20 µM (BRPF1) was 1.32 °C.

From paper PMC11790914, “Chemogenomics for steroid hormone receptors (NR3)” (Communications Chemistry, 2025)
